Calls of active or inactive are those of the source. No cut-off for these calls is given here.
Key:
A549 [1] = test: Anticancer activity against human A549 cells assessed as reduction in cell viability incubated for 48 hrs by MTT assay; settings: A549, 48 h
A549 [2] = test: Induction of apoptosis in human A549 cells assessed as total apoptotic cells at 2 uM after 24 hrs by Annexin V-FITC/propidium iodide double staining based flow cytometry relative to control; assay type: functional
A549 [3] = test: Induction of apoptosis in human A549 cells assessed as reduction in MCL-1 protein level after 2 hrs by sandwich ELISA method; assay type: functional, cell-based; settings: A549, 2 h
A549 [4] = test: Induction of apoptosis in human A549 cells assessed as measuring caspase-3 levels after 2 hrs by sandwich ELISA method (reference value: 57.22 pg/ml); assay type: functional
[5] = molecular target: Receptor tyrosine-protein kinase erbB-2 (Homo sapiens, UniProt P04626); test: Inhibition of human HER2 in human A549 cells by ELISA method; assay type: cell-based
A549 [6] = test: Induction of apoptosis in human A549 cells assessed as necrotic cells at 2 uM after 24 hrs by Annexin V-FITC/propidium iodide double staining based flow cytometry (reference value: 0.1%); assay type: functional
A549 [7] = test: Induction of apoptosis in human A549 cells assessed as measuring caspase-3 levels after 2 hrs by sandwich ELISA method relative to control; assay type: functional
[8] = molecular target: Vascular endothelial growth factor receptor 2 (Homo sapiens, UniProt P35968); test: Inhibition of human VEGFR2 in human A549 cells incubated for over night by ELISA method; assay type: cell-based
A549 [9] = test: Cell cycle arrest in human A549 cells assessed as accumulation at G0/G1 phase at 2 uM after 24 hrs by propidium iodide staining-based flow cytometric method (reference value: 65.63%); assay type: functional
[10] = molecular target: Epidermal growth factor receptor (Homo sapiens, UniProt P00533); test: biochemical; assay type: cell-based, Sf9
A549 [11] = test: Induction of apoptosis in human A549 cells assessed as late apoptotic cells at 2 uM after 24 hrs by Annexin V-FITC/propidium iodide double staining based flow cytometry (reference value: 0.11%); assay type: functional
[12] = molecular target: T1, Tyrosine-protein kinase Mer (Homo sapiens, UniProt Q12866); test: Inhibition of human MER incubated for 90 mins by ELISA method
T1 sequence (Q12866 whole entry): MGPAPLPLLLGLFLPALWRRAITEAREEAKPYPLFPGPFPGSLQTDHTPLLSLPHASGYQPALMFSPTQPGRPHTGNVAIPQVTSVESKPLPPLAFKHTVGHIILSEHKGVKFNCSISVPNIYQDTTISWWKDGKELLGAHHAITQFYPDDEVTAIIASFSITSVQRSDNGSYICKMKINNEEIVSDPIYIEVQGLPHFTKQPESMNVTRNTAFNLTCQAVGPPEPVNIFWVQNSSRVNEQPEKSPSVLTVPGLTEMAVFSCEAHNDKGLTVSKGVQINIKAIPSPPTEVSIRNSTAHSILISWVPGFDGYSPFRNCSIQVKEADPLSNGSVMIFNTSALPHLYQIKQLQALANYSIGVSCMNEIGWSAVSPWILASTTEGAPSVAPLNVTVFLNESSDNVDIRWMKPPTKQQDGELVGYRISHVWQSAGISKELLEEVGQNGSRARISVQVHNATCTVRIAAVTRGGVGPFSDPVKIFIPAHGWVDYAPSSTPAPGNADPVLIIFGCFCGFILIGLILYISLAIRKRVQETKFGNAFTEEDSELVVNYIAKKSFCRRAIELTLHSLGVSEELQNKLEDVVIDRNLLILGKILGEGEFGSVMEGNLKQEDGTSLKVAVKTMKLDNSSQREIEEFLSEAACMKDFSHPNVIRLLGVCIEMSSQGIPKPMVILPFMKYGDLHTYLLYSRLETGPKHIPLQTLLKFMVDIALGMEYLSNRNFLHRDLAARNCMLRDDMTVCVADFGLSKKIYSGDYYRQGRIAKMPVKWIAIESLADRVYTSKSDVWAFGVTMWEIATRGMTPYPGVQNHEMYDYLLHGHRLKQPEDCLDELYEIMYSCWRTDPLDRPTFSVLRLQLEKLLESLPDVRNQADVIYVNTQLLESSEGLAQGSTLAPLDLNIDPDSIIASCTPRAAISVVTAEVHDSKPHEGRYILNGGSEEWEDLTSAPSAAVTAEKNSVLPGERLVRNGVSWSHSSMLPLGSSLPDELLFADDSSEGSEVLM

A549 [13] = test: Induction of apoptosis in human A549 cells assessed as early apoptotic cells at 2 uM after 24 hrs by Annexin V-FITC/propidium iodide double staining based flow cytometry (reference value: […]); assay type: functional
A549 [14] = test: Induction of apoptosis in human A549 cells assessed as viable cells at 2 uM after 24 hrs by Annexin V-FITC/propidium iodide double staining based flow cytometry (reference value: 97.87%); assay type: functional; settings: A549, 24 h, read-out: Activity
A549 [15] = test: Cell cycle arrest in human A549 cells assessed as accumulation at pre-G1 phase at 2 uM after […] by propidium iodide staining-based flow cytometric method (reference value: 0.36%); assay type: functional
A549 [16] = test: Cell cycle arrest in human A549 cells assessed as accumulation at G2/M phase at 2 uM after 24 hrs by propidium iodide staining-based flow cytometric method (reference value: 7.22%); assay type: functional
PANC-1 [17] = test: Anticancer activity against human PANC1 assessed as reduction in cell viability at 100 uM incubated for 48 hrs by MTT assay relative to control; assay type: functional
[18] = molecular target: Hepatocyte growth factor receptor (Homo sapiens, UniProt P08581); test: Inhibition of human c-MET incubated for 2 hrs by ELISA method
A549 [19] = test: Cell cycle arrest in human A549 cells assessed as accumulation at S phase at 2 uM after 24 hrs by propidium iodide staining-based flow cytometric method (reference value: 26.79%); assay type: functional
HT-29 [20] = test: Anticancer activity against human HT-29 assessed as reduction in cell viability at 100 uM incubated for 48 hrs by MTT assay relative to control; assay type: functional
OVCAR-3 [21] = test: Anticancer activity against human OVCAR3 assessed as reduction in cell viability incubated for 48 hrs by MTT assay; settings: OVCAR-3, 48 h
HT-29 [22] = test: Anticancer activity against human HT-29 assessed as reduction in cell viability incubated for 48 hrs by MTT assay; settings: HT-29, 48 h
PANC-1 [23] = test: Anticancer activity against human PANC1 assessed as reduction in cell viability incubated for 48 hrs by MTT assay; settings: PANC-1, 48 h
OVCAR-3 [24] = test: Anticancer activity against human OVCAR3 assessed as reduction in cell viability at 100 uM incubated for 48 hrs by MTT assay relative to control; assay type: functional
786-0 = test: Anticancer activity against human 786-O assessed as reduction in cell viability at 100 uM incubated for 48 hrs by MTT assay relative to control; assay type: functional

Chain of Vascular endothelial growth factor receptor 2 (P35968 whole entry): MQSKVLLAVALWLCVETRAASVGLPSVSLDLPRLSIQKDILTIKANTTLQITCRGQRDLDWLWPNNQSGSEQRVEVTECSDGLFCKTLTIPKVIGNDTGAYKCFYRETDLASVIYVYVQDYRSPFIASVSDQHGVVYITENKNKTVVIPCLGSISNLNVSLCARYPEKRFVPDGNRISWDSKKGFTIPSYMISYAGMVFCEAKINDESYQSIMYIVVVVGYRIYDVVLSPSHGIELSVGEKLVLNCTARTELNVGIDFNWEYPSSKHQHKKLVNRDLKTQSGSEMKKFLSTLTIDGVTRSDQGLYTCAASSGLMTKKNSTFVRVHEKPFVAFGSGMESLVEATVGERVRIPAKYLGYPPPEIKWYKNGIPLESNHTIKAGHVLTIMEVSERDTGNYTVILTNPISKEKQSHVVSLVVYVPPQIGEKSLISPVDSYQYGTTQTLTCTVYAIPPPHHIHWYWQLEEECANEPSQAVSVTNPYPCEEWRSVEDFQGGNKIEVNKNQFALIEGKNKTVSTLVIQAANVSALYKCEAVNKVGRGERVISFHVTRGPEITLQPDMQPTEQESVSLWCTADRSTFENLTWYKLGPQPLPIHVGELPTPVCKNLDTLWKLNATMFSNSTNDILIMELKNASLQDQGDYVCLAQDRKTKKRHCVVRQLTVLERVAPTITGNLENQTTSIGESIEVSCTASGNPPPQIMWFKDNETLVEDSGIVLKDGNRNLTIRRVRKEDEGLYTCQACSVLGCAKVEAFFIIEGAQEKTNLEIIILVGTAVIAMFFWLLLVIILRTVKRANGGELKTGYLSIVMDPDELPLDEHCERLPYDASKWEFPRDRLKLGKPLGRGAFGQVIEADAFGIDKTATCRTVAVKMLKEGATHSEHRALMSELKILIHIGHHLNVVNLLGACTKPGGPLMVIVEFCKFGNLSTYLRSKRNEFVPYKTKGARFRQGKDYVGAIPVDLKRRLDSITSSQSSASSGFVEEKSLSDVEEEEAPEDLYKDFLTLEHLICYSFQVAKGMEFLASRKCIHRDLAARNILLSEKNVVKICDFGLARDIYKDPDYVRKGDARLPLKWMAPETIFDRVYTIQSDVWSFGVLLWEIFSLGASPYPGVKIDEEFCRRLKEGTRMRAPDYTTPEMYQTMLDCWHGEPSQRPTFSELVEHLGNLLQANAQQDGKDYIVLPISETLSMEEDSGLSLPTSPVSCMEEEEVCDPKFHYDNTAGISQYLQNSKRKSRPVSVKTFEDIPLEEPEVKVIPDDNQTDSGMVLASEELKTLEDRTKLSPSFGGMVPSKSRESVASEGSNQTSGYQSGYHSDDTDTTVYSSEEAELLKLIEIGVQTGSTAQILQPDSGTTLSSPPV
Chain of Receptor tyrosine-protein kinase erbB-2 (P04626 whole entry): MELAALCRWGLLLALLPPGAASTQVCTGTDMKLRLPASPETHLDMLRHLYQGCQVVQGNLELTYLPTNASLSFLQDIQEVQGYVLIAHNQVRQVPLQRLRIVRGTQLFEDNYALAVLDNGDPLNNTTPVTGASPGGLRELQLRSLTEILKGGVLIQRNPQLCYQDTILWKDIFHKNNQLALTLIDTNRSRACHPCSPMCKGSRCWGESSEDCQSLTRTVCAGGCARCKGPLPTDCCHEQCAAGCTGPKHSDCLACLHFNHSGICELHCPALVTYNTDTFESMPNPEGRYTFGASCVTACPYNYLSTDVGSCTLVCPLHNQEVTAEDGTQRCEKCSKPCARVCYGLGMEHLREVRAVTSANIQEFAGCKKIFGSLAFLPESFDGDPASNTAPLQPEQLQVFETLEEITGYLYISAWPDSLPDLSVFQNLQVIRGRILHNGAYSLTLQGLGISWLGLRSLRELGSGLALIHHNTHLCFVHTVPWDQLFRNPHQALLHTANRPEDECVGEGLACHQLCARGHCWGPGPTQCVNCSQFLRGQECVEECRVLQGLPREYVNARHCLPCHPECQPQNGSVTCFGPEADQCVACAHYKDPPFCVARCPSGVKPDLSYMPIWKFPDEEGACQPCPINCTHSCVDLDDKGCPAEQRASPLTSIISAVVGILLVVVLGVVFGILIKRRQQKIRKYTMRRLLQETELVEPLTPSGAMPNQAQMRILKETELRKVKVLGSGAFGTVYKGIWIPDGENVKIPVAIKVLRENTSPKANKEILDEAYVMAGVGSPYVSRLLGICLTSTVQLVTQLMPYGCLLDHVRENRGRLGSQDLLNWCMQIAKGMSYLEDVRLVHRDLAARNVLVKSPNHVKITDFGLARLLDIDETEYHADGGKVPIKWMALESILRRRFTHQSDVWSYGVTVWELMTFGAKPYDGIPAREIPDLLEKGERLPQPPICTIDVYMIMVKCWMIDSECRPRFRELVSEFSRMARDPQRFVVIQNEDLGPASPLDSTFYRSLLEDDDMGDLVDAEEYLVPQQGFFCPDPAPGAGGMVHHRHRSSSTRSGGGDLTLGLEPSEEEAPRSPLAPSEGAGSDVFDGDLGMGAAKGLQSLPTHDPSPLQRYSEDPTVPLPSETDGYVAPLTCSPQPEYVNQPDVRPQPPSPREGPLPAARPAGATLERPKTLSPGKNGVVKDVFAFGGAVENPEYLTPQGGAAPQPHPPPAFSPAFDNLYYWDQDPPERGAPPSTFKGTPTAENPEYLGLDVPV
Chain of Epidermal growth factor receptor (P00533 whole entry): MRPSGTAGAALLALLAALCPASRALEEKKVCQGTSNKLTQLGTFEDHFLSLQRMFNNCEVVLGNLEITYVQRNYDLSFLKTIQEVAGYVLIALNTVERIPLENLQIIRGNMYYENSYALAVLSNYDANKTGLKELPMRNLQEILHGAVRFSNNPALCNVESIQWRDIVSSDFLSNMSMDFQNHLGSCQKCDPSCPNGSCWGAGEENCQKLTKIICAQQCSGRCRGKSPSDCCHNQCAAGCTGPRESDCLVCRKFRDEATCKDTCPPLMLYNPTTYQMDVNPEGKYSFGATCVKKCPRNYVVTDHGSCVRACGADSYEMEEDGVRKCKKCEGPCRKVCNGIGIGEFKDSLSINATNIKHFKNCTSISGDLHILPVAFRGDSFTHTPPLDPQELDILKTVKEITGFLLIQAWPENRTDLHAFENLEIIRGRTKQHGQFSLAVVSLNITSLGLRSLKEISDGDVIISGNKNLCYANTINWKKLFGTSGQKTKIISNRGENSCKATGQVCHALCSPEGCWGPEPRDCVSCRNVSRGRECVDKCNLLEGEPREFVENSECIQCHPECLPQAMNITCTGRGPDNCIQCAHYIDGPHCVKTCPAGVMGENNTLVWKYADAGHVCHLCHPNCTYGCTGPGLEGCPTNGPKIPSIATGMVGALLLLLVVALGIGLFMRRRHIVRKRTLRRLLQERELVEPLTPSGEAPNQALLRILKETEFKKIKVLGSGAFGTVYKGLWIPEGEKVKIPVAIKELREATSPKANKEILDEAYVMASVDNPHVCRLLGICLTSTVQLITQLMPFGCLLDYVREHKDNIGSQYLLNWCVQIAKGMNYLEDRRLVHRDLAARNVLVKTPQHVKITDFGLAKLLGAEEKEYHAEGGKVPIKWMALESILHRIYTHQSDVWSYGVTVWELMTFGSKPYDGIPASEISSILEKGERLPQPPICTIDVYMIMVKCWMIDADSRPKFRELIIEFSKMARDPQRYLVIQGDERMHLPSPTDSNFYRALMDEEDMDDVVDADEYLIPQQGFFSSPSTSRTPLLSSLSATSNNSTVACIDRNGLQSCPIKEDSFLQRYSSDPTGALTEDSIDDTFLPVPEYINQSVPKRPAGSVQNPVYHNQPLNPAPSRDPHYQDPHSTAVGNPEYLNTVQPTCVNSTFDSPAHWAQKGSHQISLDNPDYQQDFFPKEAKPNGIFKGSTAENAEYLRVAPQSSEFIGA

Compound: O=C(CSC(=S)N1CCOCC1)Nc1cccc(NC(=O)c2ccccn2)c1
- IC50 (A549 [1]): 0.05 µM

Compound: Cc1ccc(NC(=O)Nc2cccc(NC(=O)c3ccccn3)c2)cc1
- IC50 (A549 [1]): 0.02 µM

Compound: O=C(CSC(=S)N1CCN(c2ncccn2)CC1)Nc1cccc(NC(=O)c2ccccn2)c1
- IC50 (A549 [1]): 0.04 µM

Compound: O=C(CSC(=S)N1CCN(C2CCCCC2)CC1)Nc1cccc(NC(=O)c2ccccn2)c1
- IC50 (A549 [1]): 0.39 µM

Compound: O=C(Nc1ccc(Cl)cc1)Nc1cccc(NC(=O)c2ccccn2)c1
- IC50 (A549 [1]): 3.62 µM

Compound: O=C(CSC(=S)N1CCCCC1)Nc1cccc(NC(=O)c2ccccn2)c1
- fold change (FC) (A549 [2]): 49
- IC50 (A549 [3]): 6.7 µM
- Activity (A549 [4]): 505.4 pg/mL
- IC50 [5]: 0.104 µM
- Activity (A549 [6]): 1.33%
- fold change (FC) (A549 [7]): 8.833
- IC50 [8]: 0.027 µM
- IC50 (A549 [1]): 0.32 µM
- Activity (A549 [9]): 52.92%
- IC50 [10]: 0.084 µM
- Activity (A549 [11]): 7.72%
- IC50 [12]: 3.95 µM
- Activity (A549 [13]): 5.01%
- viability at 2 µM (A549 [14]): 85.2%
- Activity (A549 [15]): 13.06%
- Activity (A549 [16]): 17.36%
- Activity (PANC-1 [17]): Active
- IC50 [18]: 8.3 µM
- Activity (A549 [19]): 16.66%
- Activity (HT-29 [20]): Active

Compound: O=C(NCc1ccccc1)Nc1cccc(NC(=O)c2ccccn2)c1
- IC50 (A549 [1]): 2.99 µM

Compound: O=C(Nc1cccc(NC(=S)Nc2ccccc2)c1)c1ccccn1
- IC50 (A549 [1]): 4.4 µM

Compound: CCN1CCN(C(=S)SCC(=O)Nc2cccc(NC(=O)c3ccccn3)c2)CC1
- IC50 (A549 [1]): 3.72 µM

Compound: O=C(CCSC(=S)N1CCCCC1)Nc1cccc(NC(=O)c2ccccn2)c1
- IC50 (A549 [1]): 4.12 µM

Compound: O=C(CCSC(=S)N1CCN(c2ncccn2)CC1)Nc1cccc(NC(=O)c2ccccn2)c1
- IC50 (A549 [1]): 0.46 µM

Compound: CN1CCN(C(=S)SCC(=O)Nc2cccc(NC(=O)c3ccccn3)c2)CC1
- IC50 (A549 [1]): 1.34 µM

Compound: O=C(Nc1ccccc1)Nc1cccc(NC(=O)c2ccccn2)c1
- IC50 (A549 [1]): 5.19 µM

Compound: CC(C)(C)OC(=O)N1CCN(C(=S)SCC(=O)Nc2cccc(NC(=O)c3ccccn3)c2)CC1
- IC50 (A549 [1]): 0.18 µM

Compound: O=C(Nc1cccc(NC(=S)Nc2ccc([N+](=O)[O-])cc2)c1)c1ccccn1
- IC50 (A549 [1]): 0.45 µM

Compound: O=C(CCSC(=S)N1CCN(c2ccccc2)CC1)Nc1cccc(NC(=O)c2ccccn2)c1
- IC50 [5]: 0.054 µM
- IC50 [8]: 0.094 µM
- IC50 (A549 [1]): 31.7 µM
- IC50 [10]: 0.07 µM
- IC50 [12]: 3.12 µM
- Activity (PANC-1 [17]): Active
- IC50 [18]: 17.9 µM
- Activity (HT-29 [20]): Active

Compound: O=C(Nc1cccc(NC(=O)c2ccccn2)c1)Nc1ccc2ccccc2c1
- IC50 (A549 [1]): 0.24 µM

Compound: O=C(CSC(=S)N1CCN(c2ccccc2)CC1)Nc1cccc(NC(=O)c2ccccn2)c1
- IC50 (A549 [1]): 0.53 µM

Compound: O=C(Nc1cccc(Cl)c1)Nc1cccc(NC(=O)c2ccccn2)c1
- IC50 (A549 [1]): 2.85 µM

Compound: O=C(Nc1ccc([N+](=O)[O-])cc1)Nc1cccc(NC(=O)c2ccccn2)c1
- IC50 (A549 [1]): 0.32 µM

Compound: O=C(CCSC(=S)N1CCOCC1)Nc1cccc(NC(=O)c2ccccn2)c1
- IC50 (A549 [1]): 2.42 µM

Compound: CNC(=O)c1cc(Oc2ccc(NC(=O)Nc3ccc(Cl)c(C(F)(F)F)c3)cc2)ccn1 [SORAFENIB]
- IC50 (A549 [3]): 5.53 µM
- Activity (A549 [4]): 515 pg/mL
- Activity (A549 [6]): 1.42%
- IC50 (A549 [1]): 0.75 µM
- IC50 (OVCAR-3 [21]): 12 µM
- IC50 (HT-29 [22]): 10 µM
- Activity (A549 [9]): 45.13%
- Activity (A549 [11]): 8.62%
- Activity (A549 [13]): 6.18%
- viability at 2 µM (A549 [14]): 82%
- Activity (A549 [15]): 16.22%
- Activity (A549 [16]): 23.14%
- IC50 (PANC-1 [23]): 20 µM
- Activity (A549 [19]): 15.51%

Compound: O=C(Nc1cccc(NC(=O)c2ccccn2)c1)NC1CCCCC1
- IC50 [5]: 0.064 µM
- IC50 [8]: 0.087 µM
- IC50 (A549 [1]): 6.26 µM
- IC50 [10]: 0.147 µM
- IC50 [12]: 2.63 µM
- Activity (OVCAR-3 [24]): <=50%
- Activity (PANC-1 [17]): <=50%
- IC50 [18]: 6.22 µM
- Activity (786-0): <=50%
- Activity (HT-29 [20]): <=50%

Compound: C=CCN1CCN(C(=S)SCC(=O)Nc2cccc(NC(=O)c3ccccn3)c2)CC1
- IC50 (A549 [1]): 0.21 µM

Source: ChEMBL document CHEMBL4433204, “Design, synthesis and docking study of novel picolinamide derivatives as anticancer agents and VEGFR-2 inhibitors” (Eur J Med Chem, 2019)
